Patent US20010046668A1, “Fluorescence polarization method for determining protease activity” (G.D. Searle & Co., priority 1994, published 2001)
No end group written: not given here.

Target: HCMV protease (also known as assemblin) encoded by UL80 (Human cytomegalovirus, UniProt P16753)
Assay: Assemblin fluorescence polarization assay: hydrolysis of biotin/DTAF peptide substrate, quenched with avidin
Format: biochemical, human cytomegalovirus strain AD169
Conditions: for Polarization: protease 100 nM, substrate 5 μM final, room temperature, avidin added
Description: The construction also encoded six additional histidine residues at the amino terminus of the protease. These additional histidine residues provided an affinity ligand by which it was purified using nickel-nitriloacetic acid-agarose (Qiagen).
The assay was performed in a buffer consisting 10 mM Phosphate buffer, pH 7.4, 20% glycerol, 150 mM sodium acetate, 0.1% CHAPS, 0.1 mM EDTA, 0.05% BSA, 2 mM NaSO3. The pH of the buffer was adjusted to 7.4 before the addition of glycerol.
The purified protease was stored as a 10 μM stock solution in 50/50 (V/V) glycerol/water, 50 μL per vial, and held at −20° C. A positive displacement pipette was used to make the 50 μL aliquots. This stock was diluted with assay buffer to 32 nM. A 100 μL aliquot of this solution was used in the enzyme reaction. A 150 μM substrate stock solution was prepared in assay buffer and stored at 4° C. in the dark. A 20 μM dilute assay stock was prepared by dilution of the 150 μM storage stock. A 5 mg/mL avidin stock solution was made by dissolving avidin (Molecular Probes) in assay buffer and stored in the refrigerator at 4° C. Roundbottom 96-well plate microtiter plates (Black MicroFluor, Dynatec) were pre-blocked with 1.0% BSA in PBS, pH 7.4, and stored at 4° C. The plates were rinsed and dried before use.
An HCMV protease (also known as assemblin) encoded by UL80, in buffer (100 nM) was added in multiple wells to rinsed and dried, pre-blocked microtiter plate. No precautions are taken to stabilize the temperature. Substrate (5 μM final concentration) was added, mixed 5 times, and incubated at room temperature. Avidin (35 μL of 5 mg/mL) was added to one group of wells after 10 minutes, to a second group of wells after 20 minutes and to the remaining wells after thirty minutes, mixed 5 times, and the polarization of the resulting mixture was measured on the FPM2 fluorescence polarimeter. The complete hydrolysis to Ser-Ala-Leu-Arg-Lys(DTAF)-NH2 gave a Pmin value of 32.1 mP.

Sequence of HCMV protease (also known as assemblin) encoded by UL80 (P16753 1-256): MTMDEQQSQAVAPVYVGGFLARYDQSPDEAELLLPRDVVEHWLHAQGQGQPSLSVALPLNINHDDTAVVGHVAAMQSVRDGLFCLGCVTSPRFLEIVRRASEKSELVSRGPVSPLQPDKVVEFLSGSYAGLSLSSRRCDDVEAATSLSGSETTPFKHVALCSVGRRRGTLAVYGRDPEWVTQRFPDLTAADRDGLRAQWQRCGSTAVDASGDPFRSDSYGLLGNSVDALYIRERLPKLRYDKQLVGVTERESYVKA

Substance	ΔP = Pmax − P(t) (time 0 min)	Polarization (time 0 min)	ΔP = Pmax − P(t) (time 10 min)	Polarization (time 10 min)	ΔP = Pmax − P(t) (time 20 min)	Polarization (time 20 min)	ΔP = Pmax − P(t) (time 30 min)	Polarization (time 30 min)	Pmin value (polarization) (complete hydrolysis of the substrate to the cleaved fluorescent fragment)
Biotin-γ-Abu-Gly-Val-Val-Asn-Ala-Ser-Ala-Arg-Leu-Lys(DTAF)-NH2 [Example 1]	0.0 mP	214.1 mP	47.0 mP	167.2 mP	77.2 mP	136.9 mP	99.9 mP	114.2 mP	–
Ser-Ala-Leu-Arg-Lys(DTAF)-NH2 (SALRK(DTAF)-NH2) [cleaved fluorescent fragment from complete hydrolysis of the assemblin substrate]	–	–	–	–	–	–	–	–	32.1 mP
